Assay: RP, Thermo Scientific Acclaim RSLC 120 C18, 100 × 2.1 mm, 2.2 µm, 30 °C, 0.2 mL/min, estimated dead time 1.1 min; A: 90% water + 10% methanol + 0.01% formic acid + 5 mM ammonium formate, pH 3.61; B: methanol + 0.01% formic acid + 5 mM ammonium formate, pH 3.61; gradient (min/%B) 0/1 1/1 2/39 13/99.9 15/99.9 15.1/1 20.1/1
Conditions: stereoisomer not certain

Row | Structure (SMILES) | LC retention time [min]
1 | O=C(c1cccc2ccccc12)c1nc2ccccc2n1CCCCCF [FUBIMINA] | 11.6
2 | Nc1[nH]c(=O)ncc1F [Cytosine-5-Fluoro (broad peak)] | 1.43
3 | COCC(C)N(C(=O)CCl)c1c(C)csc1C (stereo not given) [Dimethenamide] | 9.26
4 | COc1cc(C=C2CCCC(=Cc3ccc(O)c(OC)c3)C2=O)ccc1O [Cyclovalone] | 9.59
5 | COC(=O)c1ccccc1S(=O)(=O)NC(=O)N(C)c1nc(C)nc(OC)n1 [Tribenuron-methyl] | 7.94
6 | O=c1oc2ccccc2c(O)c1C1CC(c2ccc(-c3ccc(Br)cc3)cc2)Cc2ccccc21 (stereo not given) [Brodifacoum] | 13
7 | CC1CC2C3CCC4=CC(=O)C=CC4(C)C3(Cl)C(O)CC2(C)C1(OC(=O)c1ccco1)C(=O)CCl (stereo not given) [Mometasone fuorate] | 10.6
8 | COC(=O)C(NC(=O)c1nn(CC2CCCCC2)c2ccccc12)C(C)C (stereo not given) [MA-CHMINACA] | 12.4
9 | COC(=O)c1ccc(C)cc1C1=NC(C)(C(C)C)C(=O)N1 (stereo not given) [Imazamethabenz-methyl] | 7.16
10 | CN(C)C=Nc1c(I)cc(I)c(CCC(=O)O)c1I [Iopodic acid] | 10.2
11 | O=C(NC(=O)c1c(F)cccc1F)Nc1ccc(CON=C(c2ccc(Cl)cc2)C2CC2)cc1 [Flucycloxuron] | 12.8
12 | COC(=O)CCCOc1ccc(Cl)cc1Cl [2.4-DB-methylester] | 11.3
13 | CCC(=C(c1ccc(O)cc1)c1ccc(OCCN(C)C)cc1)c1ccccc1 [4-Hydroxytamoxifen] | 9.1
14 | CSc1ccc2c(c1)N(CCC1CCCCN1C)c1ccccc1S2=O (stereo not given) [Thioridazine-5-sulfoxide] | 6.64
15 | CN1CCC23c4c5ccc(O)c4OC2C(=O)CCC3C1C5 (stereo not given) [Hydromorphone] | 2.91
16 | CC(C)(C)NCC(O)COc1cc(C(=O)O)ccc1Cl (stereo not given) [Bupranolol- 5-Carboxy] | 5.01
17 | CN(C)CCCN1c2ccccc2Sc2ccc(C(F)(F)F)cc21 [Triflupromazine] | 9.27
18 | CCCCCCCCCCN(C)C [N,N-Dimethyldecylamine] | 8.59
19 | CC(C)(C)NCC(O)COc1cccc2c1CCCC2=O (stereo not given) [Levobunolol] | 4.84
20 | C=CCN1CCC23c4c5ccc(O)c4OC2C(O)C=CC3C1C5 (stereo not given) [Nalorphine] | 3.39
21 | COc1cccc(C2(O)CCCCC2CN)c1 (stereo not given) [Tramadol-N-bisdesmethyl (dinor-tramadol)] | 5.19
22 | CCCCC(=O)N(Cc1ccc(-c2ccccc2-c2nn[nH]n2)cc1)C(C(=O)O)C(C)C (stereo not given) [Valsartan] | 9.21

Row | Structure (SMILES) | LC retention time [min]
23 | CN(CC=CC#CC(C)(C)C)Cc1cccc2ccccc12 [Terbinafine] | 11
24 | CCc1nn(C)c(C(=O)NCc2ccc(C(C)(C)C)cc2)c1Cl [Tebufenpyrad] | 12.2
25 | CNC(C)Cc1ccc(O)c(O)c1 (stereo not given) [HHMA] | 2.59
26 | O=C(O)CCCOc1ccc(Cl)cc1Cl [2.4-DB] | 10
27 | Cc1[nH]oc(=O)c1N=Nc1ccccc1Cl [Drazoxolon] | 10.3
28 | CC(C)(C)NCC(O)c1ccc(O)c(CO)c1 (stereo not given) [Albuterol / Salbutamol] | 3.23
29 | CC(=O)SC1CC2=CC(=O)CCC2(C)C2CCC3(C)C(CCC34CCC(=O)O4)C12 (stereo not given) [Spironolactone] | 9.24
30 | O=C(O)Cc1ccccc1Nc1c(Cl)cccc1Cl [Diclofenac] | 10.2
31 | CC(N)Cc1ccc2occc2c1 (stereo not given) [5-(2-aminopropyl)benzofuran (5-APB)] | 4.79
32 | CNC(=O)ON=C(SC)C(=O)N(C)C [Oxamyl] | 3.77
33 | CCCCN(CC)C(=O)SCCC [Pebulate] | 11.5
34 | N[C@@H](Cc1cc(I)c(Oc2cc(I)c(O)c(I)c2)c(I)c1)C(=O)O [L-Thyroxine] | 9.39
35 | CON(C)C(=O)Nc1ccc(Cl)c(Cl)c1 [Linuron] | 9.3
36 | O=C1OC(=O)c2ccccc21 [PX-1] | 9.58
37 | CCCSP(=O)(OCC)Oc1ccc(Br)cc1Cl (stereo not given) [Profenophos] | 12
38 | CCCc1nn(C)c2c(=O)[nH]c(-c3cc(C(=O)CN4CC(C)NC(C)C4)ccc3OCC)nc12 (stereo not given) [Acetildenafil-Dimethyl] | 7.5
39 | CC1=C(C(=O)Nc2ccccc2)SCCO1 [Carboxin] | 7.46
40 | CCOP(=S)(OCC)SCSCC [Phorate] | 11.4
41 | CCN1CC(CCN2CCOCC2)C(c2ccccc2)(c2ccccc2)C1=O (stereo not given) [Doxapram] | 6.23
42 | CCOP(=O)(OCC)OC(=CCl)c1ccc(Cl)cc1Cl (mixture of isomers) [Chlorfenvinphos (E/Z) Peak 1 (Main)] | 11
43 | COC(=O)C1C(O)CCC2CN3CCc4c([nH]c5ccccc45)C3CC21 (stereo not given) [Yohimbine] | 5.08
44 | C=CCN(CC=C)C(=O)CCl [Allidochlor] | 6.37

Row | Structure (SMILES) | LC retention time [min]
45 | COc1ccc(CC(C)N)c(OC)c1OC (stereo not given) [TMA] | 4.16
46 | CC=C(C)C(=O)OC1CC(OC(C)=O)C2(C(=O)OC)COC3C2C12COC(O)(C(=O)OC)C2C(C)(C12OC1(C)C1CC2OC2OC=CC21O)C3O (stereo not given) [Azadirachtin] | 7.56
47 | CCCCCCCCCCCCCCN(C)C [N,N-Dimethyltetradecylamine] | 11.8
48 | Cc1ccc(N(SC(F)(Cl)Cl)S(=O)(=O)N(C)C)cc1 [Tolyfluanid] | 10.8
49 | CN1CCN(C2=Nc3cc(Cl)ccc3Nc3ccccc32)CC1 [Clozapine] | 7.19
50 | CCCCc1nc(Cl)c(CO)n1Cc1ccc(-c2ccccc2-c2nn[nH]n2)cc1 [Losartan] | 8.19
51 | COc1cc(OC)nc(NC(=O)NS(=O)(=O)c2c(Cl)nc3ccccn23)n1 [Imazosulfuron] | 8.78
52 | Cc1cccc(Nc2ccncc2S(=O)(=O)NC(=O)NC(C)C)c1 [Torasemide] | 6.67
53 | CCCCc1ncc(C=C(Cc2cccs2)C(=O)O)n1Cc1ccc(C(=O)O)cc1 [Eprosartan] | 7.49
54 | Cc1ccc2c(-c3ccccc3)nc(=O)n(C(C)C)c2c1 [Proquazone] | 9.61
55 | NCC(O)COc1ccccc1C(=O)CCc1ccccc1 (stereo not given) [Propafenone-N-Desmethyl] | 7.09
56 | CCOC(=O)C(Cl)=Cc1cc(N2C(=O)C3=C(CCCC3)C2=O)ccc1Cl [Cinidon-ethyl] | 12.4
57 | COP(=O)(OC)OC(Br)C(Cl)(Cl)Br (stereo not given) [Naled] | 8.55
58 | CCCCCCCC(C)(C)c1ccc(C2CCCC(O)C2)c(O)c1 (stereo not given) [CP 47-497-C8] | 13.5
59 | CCN(CC)C(=O)C1(c2ccccc2)CC1CN (stereo not given) [Milnacipran] | 5.73
60 | CC=C1N(C)C(C)CC1(c1ccccc1)c1ccccc1 (stereo not given) [EDDP] | 6.38
61 | CCCc1nn(C)c2c(=O)[nH]c(-c3cc(S(=O)(=O)N4CCN(CCO)CC4)ccc3OCC)nc12 [Sildenafil-Hydroxyhomo] | 7.83
62 | CC(C)(C)Nc1nc(N)nc(Cl)n1 [Terbuthylazine-desethyl] | 7.48
63 | CN=CNc1ccc(C)cc1C [N'-(2 4-Dimethylphenyl)-N-methylformamidine] | 4.44
64 | CCOC(=O)C1(c2ccccc2)CCC=CC1N(C)C (stereo not given) [Tilidine] | 5.1
65 | CC12CCC3C(CC=C4CC(O)CCC43C)C1CCC2=O (stereo not given) [Dhydroepiandrosterone (DHEA) / Androstenolone] | 10.2
66 | CNC(=O)Oc1ccccc1OC(C)C [Propoxur] | 6.94

Row | Structure (SMILES) | LC retention time [min]
67 | Cc1[nH]c(=O)n(C(C)(C)C)c(=O)c1Cl [Terbacil] | 7.33
68 | COC12CCC3(CC1C(C)(O)C(C)(C)C)C1Cc4ccc(O)c5c4C3(CCN1CC1CC1)C2O5 (stereo not given) [Buprenorphine (BN)] | 7.96
69 | COc1ccc2c(c1OC)C(=O)OC2C1c2c(cc3c(c2OC)OCO3)CCN1C (stereo not given) [Noscapine] | 6.96
70 | O=C(Nc1cccc(Cl)c1)OCC#CCCl [Barban] | 9.74
71 | CC(=O)OCC(=O)C1(O)CCC2C3CCC4=CC(=O)CCC4(C)C3C(O)CC21C (stereo not given) [Hydrocortisone 21-acetate] | 8.8
72 | CN1C(=O)C(O)N=C(c2ccccc2)c2cc(Cl)ccc21 (stereo not given) [Temazepam] | 7.94
73 | CNC1(c2ccccc2Cl)CCCCC1=O (stereo not given) [Ketamine] | 4.61
74 | CCOc1ccc(S(=O)(=O)O)c2cccnc12 [Actinoquinol] | 3.56
75 | CCOc1ccc(NC(=O)CC(C)O)cc1 (stereo not given) [Bucetin] | 6.27
76 | CCCCCCCCCC[N+](C)(C)CCCCCCCCCC [Didecyldimethylammonium (DADMAC (C10:C10))] | 12.6
77 | CN1CCCC(CC2c3ccccc3Sc3ccccc32)C1 (stereo not given) [Metixene] | 8.51
78 | Cc1ccc(N)c(C)c1 [Dimethylaniline (2.4-) (Metabolite Amitraz)] | 5.04
79 | CC(C)OC(=O)Nc1ccc2nc(-c3cscn3)[nH]c2c1 [Cambendazol] | 7.66
80 | COc1ccc2c3c1OC1C(=O)CCC4C(C2)N(C)CCC314 (stereo not given) [Hydrocodone] | 3.69
81 | CCCCc1oc2ccc(NS(C)(=O)=O)cc2c1C(=O)c1ccc(OCCCN(CCCC)CCCC)cc1 [Dronedarone] | 10.1
82 | CC1(C)SC2C(NC(=O)COc3ccccc3)C(=O)N2C1C(=O)O (stereo not given) [Penicillin V] | 6.8
83 | CN1CCCCC1Cn1cc(C(=O)c2cccc3ccccc23)c2ccccc21 (stereo not given) [AM-1220] | 8.09
84 | c1nc[nH]n1 [1,2,4-Triazole] | 1.56
85 | Clc1ccc2c(c1)N=C(N1CCNCC1)c1ccccc1N2 [Clozapine-Nor] | 7.29
